We go through two compounds from ChEMBL document CHEMBL3132747, “Design and synthesis of a novel series of N,4-diphenylpyrimidin-2-amine derivatives as potent and selective PI3K inhibitors” (Medchemcomm, 2014).

The structures appear in SMILES notation. A value given as a limit tells only on which side of the number the result lay.

Assay [1] deals with MCF7. Nature of the assay: Anticancer activity against human MCF7 cells by MTT assay. Type of assay: functional, cell-based. (Formazan colour is commonly taken as a measure of viable cells.)
The subject of assay [2] is A549. Nature of the assay: Anticancer activity against human A549 cells by MTT assay. In kind it is functional, cell-based.
In assay [3] the test system is HeLa. Nature of the assay: Anticancer activity against human HeLa cells by MTT assay. In kind it is functional, cell-based.
Assay [4] has as its system HepG2. The assay can be described thus: Anticancer activity against human HepG2 cells by MTT assay. In kind it is functional, cell-based.
Assay [5] has as its target Phosphatidylinositol 4,5-bisphosphate 3-kinase catalytic subunit beta isoform (Homo sapiens, UniProt P42338). The assay can be described thus: Inhibition of human PI3Kbeta.
In assay [6] the target is Phosphatidylinositol 4,5-bisphosphate 3-kinase catalytic subunit alpha isoform (Homo sapiens, UniProt P42336). Nature of the assay: Inhibition of human PI3Kalpha.
In assay [7] the target is Phosphatidylinositol 4,5-bisphosphate 3-kinase catalytic subunit gamma isoform (Homo sapiens, UniProt P48736). Nature of the assay: Inhibition of human PI3Kgamma.
Assay [8] concerns A549. The assay can be described thus: Induction of apoptosis in human A549 cells assessed as late necrotic cells at 16 uM after 48 hrs using annexin V and propidium iodide staining by flow cytometry (reference value: 6.00 %). Type of assay: functional. A general note: Flow cytometry measures light scatter and fluorescence of single cells or particles in a stream.
In assay [9] the test system is A549. The assay can be described thus: Induction of apoptosis in human A549 cells assessed as late apoptotic cells at 16 uM after 48 hrs using annexin V and propidium iodide staining by flow cytometry (reference value: 9.79 %). In kind it is functional.
For assay [10], the system named is A549. Nature of the assay: Induction of apoptosis in human A549 cells assessed as apoptotic cells at 16 uM after 48 hrs using annexin V and propidium iodide staining by flow cytometry (reference value: 5.37 %). In kind it is functional.
Assay [11] has as its system A549. Nature of the assay: Induction of apoptosis in human A549 cells assessed as viable cells at 16 uM after 48 hrs using annexin V and propidium iodide staining by flow cytometry (reference value: 78.8 %). Type of assay: functional. The note with it: A549, 48 h, read-out: Activity.
The test system of assay [12] is A549. The assay can be described thus: Induction of apoptosis in human A549 cells assessed as late necrotic cells at 4 uM after 48 hrs using annexin V and propidium iodide staining by flow cytometry (reference value: 6.00 %). In kind it is functional.
In assay [13] the test system is A549. Nature of the assay: Induction of apoptosis in human A549 cells assessed as late apoptotic cells at 4 uM after 48 hrs using annexin V and propidium iodide staining by flow cytometry (reference value: 9.79 %). Type of assay: functional.
Assay [14] deals with A549. Nature of the assay: Induction of apoptosis in human A549 cells assessed as apoptotic cells at 4 uM after 48 hrs using annexin V and propidium iodide staining by flow cytometry (reference value: 5.37 %). Type of assay: functional.
Assay [15] relates to A549. Nature of the assay: Induction of apoptosis in human A549 cells assessed as viable cells at 4 uM after 48 hrs using annexin V and propidium iodide staining by flow cytometry (reference value: 78.8 %). Type of assay: functional. The note with it: A549, 48 h, read-out: Activity.
The test system of assay [16] is A549. The assay can be described thus: Induction of apoptosis in human A549 cells assessed as late necrotic cells at 1 uM after 48 hrs using annexin V and propidium iodide staining by flow cytometry (reference value: 6.00 %). Type of assay: functional.
For assay [17], the system named is A549. Nature of the assay: Induction of apoptosis in human A549 cells assessed as late apoptotic cells at 1 uM after 48 hrs using annexin V and propidium iodide staining by flow cytometry (reference value: 9.79 %). Type of assay: functional.
In assay [18] the test system is A549. Nature of the assay: Induction of apoptosis in human A549 cells assessed as apoptotic cells at 1 uM after 48 hrs using annexin V and propidium iodide staining by flow cytometry (reference value: 5.37 %). In kind it is functional.
For assay [19], the system named is A549. The assay can be described thus: Induction of apoptosis in human A549 cells assessed as viable cells at 1 uM after 48 hrs using annexin V and propidium iodide staining by flow cytometry (reference value: 78.8 %). In kind it is functional. The note with it: A549, 48 h, read-out: Activity.
The target of assay [20] is Tyrosine-protein kinase JAK2 (Homo sapiens, UniProt O60674). Nature of the assay: Inhibition of JAK2 (unknown origin).
In assay [21] the target is Cyclin-dependent kinase 2 (Homo sapiens, UniProt P24941). Nature of the assay: Inhibition of CDK2 (unknown origin).
Assay [22] concerns the target Epidermal growth factor receptor (Homo sapiens, UniProt P00533). Nature of the assay: Inhibition of EGFR (unknown origin).

Chain of Phosphatidylinositol 4,5-bisphosphate 3-kinase catalytic subunit gamma isoform (P48736 whole entry, canonical isoform): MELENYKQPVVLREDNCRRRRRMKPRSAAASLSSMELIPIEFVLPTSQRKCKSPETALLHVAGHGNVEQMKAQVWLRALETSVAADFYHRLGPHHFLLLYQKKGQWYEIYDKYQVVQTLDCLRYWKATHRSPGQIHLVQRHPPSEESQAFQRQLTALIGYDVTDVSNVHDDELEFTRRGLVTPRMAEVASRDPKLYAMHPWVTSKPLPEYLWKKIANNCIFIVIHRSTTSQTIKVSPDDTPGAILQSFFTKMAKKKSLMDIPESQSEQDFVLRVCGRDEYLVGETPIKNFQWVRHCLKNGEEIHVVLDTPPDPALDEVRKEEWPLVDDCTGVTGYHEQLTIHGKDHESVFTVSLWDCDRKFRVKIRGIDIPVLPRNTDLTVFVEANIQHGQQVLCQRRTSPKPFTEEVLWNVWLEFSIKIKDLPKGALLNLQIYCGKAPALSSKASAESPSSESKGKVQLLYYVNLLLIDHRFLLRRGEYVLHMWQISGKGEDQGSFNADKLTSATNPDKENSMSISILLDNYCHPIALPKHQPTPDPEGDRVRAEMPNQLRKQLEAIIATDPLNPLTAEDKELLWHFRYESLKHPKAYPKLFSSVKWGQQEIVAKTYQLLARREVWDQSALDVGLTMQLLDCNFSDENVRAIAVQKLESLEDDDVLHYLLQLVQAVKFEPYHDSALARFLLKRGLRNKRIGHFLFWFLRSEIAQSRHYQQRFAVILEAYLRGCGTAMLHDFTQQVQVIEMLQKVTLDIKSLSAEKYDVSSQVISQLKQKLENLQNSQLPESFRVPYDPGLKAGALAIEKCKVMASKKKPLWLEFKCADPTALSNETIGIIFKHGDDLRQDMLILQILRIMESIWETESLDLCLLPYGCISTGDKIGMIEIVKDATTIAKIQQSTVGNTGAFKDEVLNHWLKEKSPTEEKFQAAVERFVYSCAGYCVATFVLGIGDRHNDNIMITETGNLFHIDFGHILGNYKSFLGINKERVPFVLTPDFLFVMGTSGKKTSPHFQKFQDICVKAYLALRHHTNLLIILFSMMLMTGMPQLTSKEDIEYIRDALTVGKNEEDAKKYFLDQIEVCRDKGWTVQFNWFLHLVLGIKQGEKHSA
Chain of Phosphatidylinositol 4,5-bisphosphate 3-kinase catalytic subunit alpha isoform (P42336 whole entry, canonical isoform): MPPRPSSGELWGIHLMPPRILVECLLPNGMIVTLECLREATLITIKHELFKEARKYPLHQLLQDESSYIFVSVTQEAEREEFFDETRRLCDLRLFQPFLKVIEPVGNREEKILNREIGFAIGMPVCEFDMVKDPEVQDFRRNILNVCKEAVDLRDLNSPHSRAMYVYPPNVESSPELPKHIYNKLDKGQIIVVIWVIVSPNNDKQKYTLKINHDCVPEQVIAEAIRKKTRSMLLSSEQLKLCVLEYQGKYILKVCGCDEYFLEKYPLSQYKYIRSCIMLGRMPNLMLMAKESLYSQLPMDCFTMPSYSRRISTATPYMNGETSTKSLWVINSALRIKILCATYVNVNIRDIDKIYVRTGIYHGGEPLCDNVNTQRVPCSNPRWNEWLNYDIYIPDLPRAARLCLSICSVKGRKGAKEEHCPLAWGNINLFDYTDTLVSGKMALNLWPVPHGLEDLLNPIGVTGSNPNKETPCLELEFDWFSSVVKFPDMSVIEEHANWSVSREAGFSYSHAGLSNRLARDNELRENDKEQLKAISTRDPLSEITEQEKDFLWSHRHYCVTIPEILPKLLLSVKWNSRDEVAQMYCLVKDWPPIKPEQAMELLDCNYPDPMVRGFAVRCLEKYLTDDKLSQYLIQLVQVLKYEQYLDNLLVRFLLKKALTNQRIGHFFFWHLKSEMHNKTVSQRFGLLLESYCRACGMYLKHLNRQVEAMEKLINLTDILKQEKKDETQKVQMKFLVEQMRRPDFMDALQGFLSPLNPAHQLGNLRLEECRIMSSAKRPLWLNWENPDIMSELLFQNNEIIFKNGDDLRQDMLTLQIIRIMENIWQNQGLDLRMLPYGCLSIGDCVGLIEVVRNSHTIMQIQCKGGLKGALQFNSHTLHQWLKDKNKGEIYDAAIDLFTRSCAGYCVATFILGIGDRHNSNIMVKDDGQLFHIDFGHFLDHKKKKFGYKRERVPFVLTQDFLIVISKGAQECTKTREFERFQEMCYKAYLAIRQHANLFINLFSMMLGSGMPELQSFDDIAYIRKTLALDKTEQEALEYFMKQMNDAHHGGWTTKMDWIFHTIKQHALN
Chain of Phosphatidylinositol 4,5-bisphosphate 3-kinase catalytic subunit beta isoform (P42338 whole entry, canonical isoform): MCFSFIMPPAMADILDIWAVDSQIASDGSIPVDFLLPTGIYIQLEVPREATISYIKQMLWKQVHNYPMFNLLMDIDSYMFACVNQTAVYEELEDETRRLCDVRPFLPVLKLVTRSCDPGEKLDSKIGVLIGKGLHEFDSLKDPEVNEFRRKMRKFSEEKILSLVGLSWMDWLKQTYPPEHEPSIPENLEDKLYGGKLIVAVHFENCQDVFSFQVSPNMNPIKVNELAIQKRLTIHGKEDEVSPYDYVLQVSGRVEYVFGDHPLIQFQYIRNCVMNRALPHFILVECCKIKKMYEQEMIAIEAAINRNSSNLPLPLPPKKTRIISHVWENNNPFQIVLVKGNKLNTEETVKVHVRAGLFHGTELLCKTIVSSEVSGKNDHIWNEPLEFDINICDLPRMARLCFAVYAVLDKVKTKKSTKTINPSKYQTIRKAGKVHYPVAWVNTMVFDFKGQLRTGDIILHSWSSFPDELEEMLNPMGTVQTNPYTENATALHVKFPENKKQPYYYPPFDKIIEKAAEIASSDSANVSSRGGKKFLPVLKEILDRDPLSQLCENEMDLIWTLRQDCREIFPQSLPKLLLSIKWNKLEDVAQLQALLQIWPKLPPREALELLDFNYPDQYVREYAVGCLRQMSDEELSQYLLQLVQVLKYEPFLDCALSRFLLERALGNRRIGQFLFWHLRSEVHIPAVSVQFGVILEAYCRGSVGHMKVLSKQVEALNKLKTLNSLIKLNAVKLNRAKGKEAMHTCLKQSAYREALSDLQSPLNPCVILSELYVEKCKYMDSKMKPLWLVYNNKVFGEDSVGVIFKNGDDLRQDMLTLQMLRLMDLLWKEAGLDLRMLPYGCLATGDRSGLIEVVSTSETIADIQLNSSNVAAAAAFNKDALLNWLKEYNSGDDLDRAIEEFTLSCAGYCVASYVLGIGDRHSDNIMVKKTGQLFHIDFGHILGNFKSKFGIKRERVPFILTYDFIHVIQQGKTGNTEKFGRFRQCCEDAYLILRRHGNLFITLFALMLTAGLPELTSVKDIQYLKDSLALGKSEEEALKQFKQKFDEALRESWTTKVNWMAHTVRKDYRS
Chain of Tyrosine-protein kinase JAK2 (O60674 whole entry): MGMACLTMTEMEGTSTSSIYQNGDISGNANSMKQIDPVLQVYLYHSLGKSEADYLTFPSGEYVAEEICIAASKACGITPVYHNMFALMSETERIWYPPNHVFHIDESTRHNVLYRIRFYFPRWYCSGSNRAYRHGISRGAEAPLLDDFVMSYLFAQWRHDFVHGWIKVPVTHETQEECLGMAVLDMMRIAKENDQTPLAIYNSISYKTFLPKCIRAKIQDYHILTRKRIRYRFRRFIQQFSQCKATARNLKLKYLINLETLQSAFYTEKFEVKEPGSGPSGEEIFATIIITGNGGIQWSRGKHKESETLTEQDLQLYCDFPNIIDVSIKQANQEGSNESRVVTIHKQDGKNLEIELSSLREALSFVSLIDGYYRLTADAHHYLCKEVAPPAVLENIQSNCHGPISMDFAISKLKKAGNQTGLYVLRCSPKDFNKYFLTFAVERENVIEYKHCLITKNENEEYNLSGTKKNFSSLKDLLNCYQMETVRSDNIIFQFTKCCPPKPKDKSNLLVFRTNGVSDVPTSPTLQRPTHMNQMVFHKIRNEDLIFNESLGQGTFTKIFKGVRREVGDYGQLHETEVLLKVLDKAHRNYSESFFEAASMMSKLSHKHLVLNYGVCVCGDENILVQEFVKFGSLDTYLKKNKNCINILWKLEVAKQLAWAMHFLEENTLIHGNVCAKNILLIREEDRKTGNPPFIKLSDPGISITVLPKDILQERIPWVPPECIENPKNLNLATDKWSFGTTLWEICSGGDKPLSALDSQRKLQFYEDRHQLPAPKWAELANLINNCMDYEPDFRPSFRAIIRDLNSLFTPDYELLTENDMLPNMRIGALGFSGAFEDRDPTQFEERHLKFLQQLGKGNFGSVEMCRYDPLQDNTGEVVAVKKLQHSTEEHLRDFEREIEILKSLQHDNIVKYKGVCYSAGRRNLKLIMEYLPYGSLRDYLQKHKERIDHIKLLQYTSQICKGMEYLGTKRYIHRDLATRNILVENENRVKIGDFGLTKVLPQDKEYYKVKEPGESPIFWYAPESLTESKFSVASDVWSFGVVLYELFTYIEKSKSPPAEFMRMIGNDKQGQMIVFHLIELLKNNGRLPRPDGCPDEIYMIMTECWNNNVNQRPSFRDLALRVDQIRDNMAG

For `COc1ccc(-c2ccnc(Nc3cccc(OC)c3)n2)cc1`, the IC50 was 3.45 µM in assay [1]; 6.53 µM in assay [2]; 0.55 µM in assay [3]; 13.9 µM in [4]; 0.729 µM in assay [5]; 0.615 µM in assay [6]. The IC50 in [7] (read-out: IC50) and in [7] (read-out: pIC50 (converted)) was 0.195 µM each time.

For `COc1cc(Nc2nccc(-c3ccc(Cl)cc3)n2)cc(OC)c1OC`, the Activity in assay [8] came to 2.19%; in assay [9], 39.4%; in [10], 13.5%; in assay [12], 4.62%; in assay [13], 32.8%; in assay [14] it was 6.53%. Moreover, the figures for the Activity in [16], in assay [17] and in [18] were 3.66%, 25% and 8.47%, respectively. In addition, the viability at 16 µM in [11] came out at 44.9%. The viability at 4 µM in assay [15] was determined as 56.1%. For the same compound, the viability at 1 µM in [19] stood at 62.9%. Also, the IC50 came to 21.5 µM in assay [20]; 18.8 µM in [21]; 2.15 µM in [22]; 3.15 µM in assay [1]; 0.36 µM in [2]; 0.29 µM in assay [3]. The IC50 is 0.09 µM in [4], 0.373 µM in assay [5], 0.341 µM in [6] and at most 0.065 µM in assay [7] (read-out: IC50).
